ChEMBL document CHEMBL1833844, “Sulfonamides as selective oestrogen receptor β agonists” (Bioorg Med Chem Lett, 2011)

Key:
[1] = molecular target: T1, Estrogen receptor beta (Homo sapiens, UniProt Q92731); assay: Agonist activity at ERbeta expressed in […] cells co-expressing beta-lactamase after 18 hrs by beta-lactamase reporter gene assay; assay type: functional, cell-based
[2] = molecular target: T1, Estrogen receptor beta; assay: Agonist activity at ERbeta expressed in […] cells co-expressing beta-lactamase at 10 uM after 18 hrs by beta-lactamase reporter gene assay relative to estradiol; assay type: functional, cell-based
[3] = molecular target: T2, Estrogen receptor (Homo sapiens, UniProt P03372); assay: Agonist activity at ERalpha expressed in HEK cells co-expressing beta-lactamase after 18 hrs by beta-lactamase reporter gene assay; assay type: functional, cell-based, HEK293
T2 sequence (P03372 whole entry): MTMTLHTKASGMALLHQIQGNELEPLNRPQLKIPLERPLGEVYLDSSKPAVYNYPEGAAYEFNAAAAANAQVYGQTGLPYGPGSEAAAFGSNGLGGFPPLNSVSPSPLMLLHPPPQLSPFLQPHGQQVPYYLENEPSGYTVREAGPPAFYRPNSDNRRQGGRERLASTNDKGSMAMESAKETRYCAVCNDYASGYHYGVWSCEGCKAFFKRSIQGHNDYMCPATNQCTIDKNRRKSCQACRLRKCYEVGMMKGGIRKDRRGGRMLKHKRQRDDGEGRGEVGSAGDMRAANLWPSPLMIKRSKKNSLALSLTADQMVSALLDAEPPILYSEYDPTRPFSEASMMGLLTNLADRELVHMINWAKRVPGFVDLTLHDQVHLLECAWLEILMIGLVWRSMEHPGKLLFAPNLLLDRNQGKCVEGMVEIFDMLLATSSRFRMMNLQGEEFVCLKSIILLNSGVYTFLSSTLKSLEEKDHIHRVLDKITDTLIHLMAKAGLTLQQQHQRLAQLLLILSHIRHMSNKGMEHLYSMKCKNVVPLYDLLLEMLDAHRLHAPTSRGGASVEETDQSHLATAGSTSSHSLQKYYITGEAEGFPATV

[4] = molecular target: T3, Estrogen receptor (Homo sapiens) (UniProt P03372); assay: Agonist activity at ERalpha expressed in HEK cells co-expressing beta-lactamase at 10 uM after 18 hrs by beta-lactamase reporter gene assay relative to estradiol; assay type: functional, cell-based; conditions: HEK293
T3 sequence (whole entry): T2 sequence (P03372 whole entry)

[5] = Octanol-buffer partition coefficient, log D of the compound at pH 7.4; assay type: physicochemical

T1 sequence (Q92731 whole entry): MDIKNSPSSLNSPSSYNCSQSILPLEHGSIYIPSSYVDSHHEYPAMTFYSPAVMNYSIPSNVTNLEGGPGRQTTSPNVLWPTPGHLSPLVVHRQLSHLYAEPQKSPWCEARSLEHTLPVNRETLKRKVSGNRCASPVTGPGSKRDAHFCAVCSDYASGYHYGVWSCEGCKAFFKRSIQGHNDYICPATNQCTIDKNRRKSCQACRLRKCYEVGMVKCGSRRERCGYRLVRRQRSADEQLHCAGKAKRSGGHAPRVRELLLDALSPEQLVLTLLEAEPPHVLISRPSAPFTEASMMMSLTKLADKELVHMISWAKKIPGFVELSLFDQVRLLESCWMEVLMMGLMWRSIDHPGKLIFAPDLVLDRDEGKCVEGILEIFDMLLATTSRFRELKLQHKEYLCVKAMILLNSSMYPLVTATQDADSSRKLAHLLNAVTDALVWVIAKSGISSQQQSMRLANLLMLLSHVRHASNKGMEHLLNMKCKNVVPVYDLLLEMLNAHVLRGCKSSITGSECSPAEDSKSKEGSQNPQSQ

| SMILES | EC50 [1] | Emax [2] | EC50 [3] | Emax [4] | logD [5] |
| --- | --- | --- | --- | --- | --- |
| O=S(=O)(c1ccc(O)cc1)N1[C@@H]2CC[C@H]1C[C@H](CO)C2 | > 3000 nM | 111% | 3500 nM | 94% | – |
| O=S(=O)(c1ccc(O)cc1)N(CCC(F)(F)F)c1ccc(O)cc1 | 43 nM | 104% | 357 nM | 87% | – |
| CC(O)(CN(C1CC1)S(=O)(=O)c1ccc(O)cc1)c1c(F)cccc1F (racemic) | 51 nM | 45% | 3800 nM | 75% | 2.9 |
| CCCCC(O)(CN(C1CC1)S(=O)(=O)c1ccc(O)cc1)c1ccccc1 (racemic) | 65 nM | 36% | > 6510 nM | 82% | 3.9 |
| CC(O)(CN(C1CC1)S(=O)(=O)c1ccc(O)cc1)c1ccc(O)cc1 (racemic) | 437 nM | 82% | > 4800 nM | – | 2 |
| O=S(=O)(c1ccc(O)cc1)N(CC(O)(c1ccccc1)C(F)(F)F)C1CC1 (racemic) | 14 nM | 43% | > 2680 nM | 66% | 3.2 |
| CCCCN(CC(C)(O)c1ccccc1)S(=O)(=O)c1ccc(O)cc1 (racemic) | 84 nM | < 30% | > 1100 nM | 82% | 3.4 |
| CC(O)(CN(C1CC1)S(=O)(=O)c1ccc(O)cc1)c1ccccc1F (racemic) | 48 nM | 49% | > 10000 nM | – | 3 |
| Cc1ccc(O)c(CCNS(=O)(=O)c2ccc(O)cc2)c1 | > 2400 nM | 73% | – | – | – |
| CC(O)(CN(C1CC1)S(=O)(=O)c1ccc(O)cc1)c1cc[nH]n1 (racemic) | 1480 nM | 86% | > 10000 nM | – | 1.3 |

Second part, the compound after the results:

| EC50 [1] | Emax [2] | EC50 [3] | Emax [4] | logD [5] | SMILES |
| --- | --- | --- | --- | --- | --- |
| 418 nM | 44% | > 2610 nM | 89% | 2.9 | CC(C)N(CC(C)(O)c1ccccc1)S(=O)(=O)c1ccc(O)cc1 (racemic) |
| 101 nM | 47% | 2310 nM | 79% | 2.5 | CC(O)(CN(C1CC1)S(=O)(=O)c1ccc(O)cc1)c1ccccc1 (racemic) |
| 110 nM | < 20% | > 4560 nM | 85% | – | C[C@@](O)(CN(C1CC1)S(=O)(=O)c1ccc(O)cc1)c1ccccc1 |
| 1100 nM | 49% | > 3200 nM | – | – | CN(CC(C)(O)c1ccccc1)S(=O)(=O)c1ccc(O)cc1 (racemic) |
| 79 nM | 48% | > 5400 nM | 107% | 2.7 | C[C@](O)(CN(C1CC1)S(=O)(=O)c1ccc(O)cc1)c1ccccc1 |
